Experimental data as given in ChEMBL document CHEMBL1156989, “Discovery of novel small molecule orally bioavailable C-X-C chemokine receptor 4 antagonists that are potent inhibitors of T-tropic (X4) HIV-1 replication” (J Med Chem, 2010).

How the values were obtained:
[1] = test system: Human immunodeficiency virus 1; experiment: Antiviral activity against HIV1 NL4.3 infected in human MT4 cells expressing CD4 and CXCR4 assessed as inhibition of virus-induced cytopathicity; assay type: functional, organism-based; conditions: Human immunodeficiency virus 1, NL4.3, MT4
[2] = Cytotoxicity against human MT4 cells expressing CD4 and CXCR4 assessed as cell viability
[3] = biological target: T1, C-X-C chemokine receptor type 4 (Homo sapiens, UniProt P61073); experiment: Antagonist activity at CXCR4 in human CEM-CCRF cells assessed as inhibition of SDF-1-induced calcium flux; assay type: functional, cell-based
[4] = biological target: T1, C-X-C chemokine receptor type 4; experiment: Inhibition of anti-CXCR4 12G5 monoclonal antibody to CXCR4 in human SUP-T1 cells pretreated for 30 mins by flow cytometry; assay type: cell-based
[5] = MT4 cells expressing CD4 and CXCR4

T1 sequence (P61073 whole entry): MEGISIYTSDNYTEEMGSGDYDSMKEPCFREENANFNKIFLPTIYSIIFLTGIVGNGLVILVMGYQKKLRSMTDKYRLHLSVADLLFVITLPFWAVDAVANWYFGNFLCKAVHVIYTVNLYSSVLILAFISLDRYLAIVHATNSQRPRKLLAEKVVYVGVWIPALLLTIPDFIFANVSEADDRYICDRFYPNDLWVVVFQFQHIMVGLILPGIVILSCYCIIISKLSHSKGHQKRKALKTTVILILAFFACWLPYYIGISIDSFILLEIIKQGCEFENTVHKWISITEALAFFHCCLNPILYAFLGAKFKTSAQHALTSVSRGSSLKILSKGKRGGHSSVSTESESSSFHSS

| Structure (SMILES) | IC50 [1] [nM] | CC50 [2, 5] [nM] | IC50 [3] [nM] | CC50 ([2]; mt4) [nM] | IC50 [4] [nM] |
| --- | --- | --- | --- | --- | --- |
| c1ccc(CCN(Cc2ccc(CNCc3ccccn3)cc2)C2CCCc3cccnc32)nc1 (configuration not stated) | 2100 | > 118000 |  |  |  |
| NCc1cccc(CN(Cc2nc3ccccc3[nH]2)C2CCCc3cccnc32)c1 (configuration not stated) | 575 | 45900 | 1400 |  |  |
| NCCCN(Cc1nc2ccccc2[nH]1)C1CCCc2cccnc21 (configuration not stated) | 77 | 32900 | 68 |  |  |
| NCCCCN(Cc1nc2ccccc2[nH]1)C1CCCc2cccnc21 (configuration not stated) | 4.8 | 160000 |  |  |  |
| NCCCCCCN(Cc1nc2ccccc2[nH]1)C1CCCc2cccnc21 (configuration not stated) | 101 |  | 75 | 30200 |  |
| c1ccc(CNCCN(Cc2ccc(CNCc3ccccn3)cc2)C2CCCc3cccnc32)nc1 (configuration not stated) | 60 | 21000 |  |  |  |
| NC/C=C\CN(Cc1nc2ccccc2[nH]1)C1CCCc2cccnc21 (configuration not stated) | 15 | 51900 | 77 |  |  |
| NC/C=C/CN(Cc1nc2ccccc2[nH]1)C1CCCc2cccnc21 (configuration not stated) | 28 | 50800 | 160 |  |  |
| NCC#CCN(Cc1nc2ccccc2[nH]1)C1CCCc2cccnc21 (configuration not stated) | 170 | 10800 | 973 |  |  |
| c1ccc(CNCc2ccc(CN(Cc3nc4ccccc4s3)C3CCCc4cccnc43)cc2)nc1 (configuration not stated) | 4600 | 22300 |  |  |  |
| c1ccc(CNCc2ccc(CNC3CCCCc4cccnc43)cc2)nc1 (configuration not stated) | 2500 |  |  |  |  |
| c1ccc(CNCc2ccc(CN(CCc3nc4ccccc4[nH]3)C3CCCc4cccnc43)cc2)nc1 (configuration not stated) | 1100 | 23100 |  |  |  |
| c1ccc(CNCc2ccc(CN(Cc3nc4ccccc4[nH]3)[C@@H]3CCCc4cccnc43)cc2)nc1 | 1080 |  |  |  | 29200 |
| c1ccc(CNCc2ccc(CN(Cn3cnc4ccccc43)C3CCCc4cccnc43)cc2)nc1 (configuration not stated) | 18800 | 21000 |  |  |  |
| c1ccc(CNCc2ccc(CN(Cc3ccccn3)C3CCc4cccnc43)cc2)nc1 (configuration not stated) | 4900 | 124000 |  |  |  |
| c1ccc(CNCc2ccc(CN(Cc3ccccn3)C3CCCc4cccnc43)cc2)nc1 (configuration not stated) | 270 | 44000 |  |  |  |
| c1ccc(CNCc2ccc(CNC3CCc4cccnc43)cc2)nc1 (configuration not stated) | 14100 |  |  |  |  |
| c1ccc(CNCc2ccc(CNC3CCCc4cccnc43)cc2)nc1 (configuration not stated) | 2700 |  |  |  |  |
| c1ccc(CN(Cc2ccc(CNCc3ccccn3)cc2)C2CCCc3cccnc32)cc1 (configuration not stated) | > 4300 | 21000 |  |  |  |
| c1ccc(CNCc2ccc(CN(Cc3ncc[nH]3)C3CCCc4cccnc43)cc2)nc1 (configuration not stated) | 200 | 500 |  |  |  |

| Structure (SMILES) | IC50 [1] [nM] | CC50 [2, 5] [nM] | IC50 [3] [nM] | CC50 ([2]; mt4) [nM] | IC50 [4] [nM] |
| --- | --- | --- | --- | --- | --- |
| NCCN(Cc1ccc(CNCc2ccccn2)cc1)C1CCCc2cccnc21 (configuration not stated) | > 25000 | 126000 |  |  |  |
| c1ccc(CNCc2ccc(CN(Cc3nc4ccccc4o3)C3CCCc4cccnc43)cc2)nc1 (configuration not stated) | 9100 | 204000 |  |  |  |
| c1ccc(CNCCN(Cc2ccc(CNCc3ccccn3)cc2)C2CCCc3cccnc32)cc1 (configuration not stated) | 920 | 23000 |  |  |  |
| c1ccc(CNCc2ccc(CN(CCCc3nc4ccccc4[nH]3)C3CCCc4cccnc43)cc2)nc1 (configuration not stated) | 1200 | 101000 |  |  |  |
| O=C(Nc1ccc(CN(Cc2nc3ccccc3[nH]2)C2CCCc3cccnc32)cc1)c1ccccn1 (configuration not stated) | 660 | 37500 |  |  |  |
| O=C(NCc1ccc(CN(Cc2nc3ccccc3[nH]2)C2CCCc3cccnc32)cc1)c1ccccn1 (configuration not stated) | 880 | 36800 |  |  |  |
| CN(C)CCCCN(Cc1nc2ccccc2[nH]1)C1CCCc2cccnc21 (configuration not stated) | 51 | 29500 | 87 |  |  |
| CNCCCCN(Cc1nc2ccccc2[nH]1)C1CCCc2cccnc21 (configuration not stated) |  | 28200 | 190 |  |  |
| O=C(Nc1ccccn1)c1ccc(CN(Cc2nc3ccccc3[nH]2)C2CCCc3cccnc32)cc1 (configuration not stated) | 980 | 34300 |  |  |  |
| O=C(NCc1ccccn1)c1ccc(CN(Cc2nc3ccccc3[nH]2)C2CCCc3cccnc32)cc1 (configuration not stated) | 1440 | 127000 |  |  |  |
| NCc1ccc(CN(Cc2nc3ccccc3[nH]2)C2CCCc3cccnc32)cc1 (configuration not stated) | 167 | 238000 | 119 |  |  |
| NCCCCCN(Cc1nc2ccccc2[nH]1)C1CCCc2cccnc21 (configuration not stated) | 74 | 30200 | 514 |  |  |
| N#CCCCCN(Cc1nc2ccccc2[nH]1)C1CCCc2cccnc21 (configuration not stated) | 774 |  | 442 | 55300 |  |
| NCCCC(=O)N(Cc1nc2ccccc2[nH]1)C1CCCc2cccnc21 (configuration not stated) | 2640 | 152000 | 3200 |  |  |
| c1ccc(CNCc2ccc(CN(Cc3nc4ccccc4[nH]3)C3CCCc4cccnc43)cc2)cc1 (configuration not stated) | 95 | 26400 |  |  |  |
| NCc1ccccc1CN(Cc1nc2ccccc2[nH]1)C1CCCc2cccnc21 (configuration not stated) | 21 | 29600 | 50 |  |  |
| NCCCCN(Cc1nc2ccccc2[nH]1)[C@@H]1CCCc2cccnc21 | 144 |  |  |  |  |
| NCCN(Cc1nc2ccccc2[nH]1)C1CCCc2cccnc21 (configuration not stated) | 1370 | 6860 | 1370 |  |  |
| c1ccc(CNCc2ccc(CN(Cc3cc4ccccc4[nH]3)C3CCCc4cccnc43)cc2)nc1 (configuration not stated) | 1600 | 8000 |  |  |  |
